≈ marks a conversion by molar mass, not a printed value. Read-outs that look alike come from different tables or passages of the source.
Key:
Type in all cases: cell-based
[1] = system: Methicillin-resistant S. epidermidis NRS101; experiment: MIC, Gram-positive panel; settings: Staphylococcus epidermidis; Methicillin-resistant S. epidermidis NRS101; read-out: MIC
Procedure: (§1) Next, the spectrum of antibacterial activity of compounds 144, 148, 149, 151, 155, 158, and 187 was examined against a panel of clinically relevant Gram-positive bacterial pathogens including methicillin-resistant Staphylococcus aureus (MRSA), vancomycin-resistant Staphylococcus aureus (VRSA), vancomycin-resistant Enterococcus faecalis and Enterococcus faecium (VRE), and Streptococcus pneumoniae. Bacterial strains were grown aerobically overnight on tryptone soya agar plates at 37° C. Afterwards, a bacterial solution equivalent to 0.5 McFarland standard was prepared and diluted in cation-adjusted Mueller-Hinton broth (CAMHB) (for staphylococci). Enterococci and Streptococci were diluted in tryptone soya broth (TSB) to achieve a bacterial concentration of about 5×10^5 CFU/mL and seeded in 96-well plates. Compounds and control drugs were added in the first row of 96-well plates and serially diluted with media containing bacteria. Plates were then, incubated aerobically at 37° C. for 18-20 hours (except for S. pneumoniae, which was incubated at 37° C. in presence of 5% CO2 for 18-20 hours).

[2] = system: Methicillin-resistant S. pneumoniae ATCC 700677; experiment: MIC, Gram-positive panel; settings: Streptococcus pneumoniae, ATCC700677; Methicillin-resistant S. pneumoniae ATCC 700677; read-out: MIC
Procedure: as §1

MRSA NRS 123 = experiment: MIC, Gram-positive panel; settings: Staphylococcus aureus; MRSA NRS 123; read-out: MIC
Procedure: as §1

S. pneumoniae ATCC 51916 = experiment: MIC, Gram-positive panel; settings: Streptococcus pneumoniae, ATCC51916; S. pneumoniae ATCC 51916; read-out: MIC
Procedure: as §1

VRSA 12 = experiment: MIC, Gram-positive panel; settings: Staphylococcus aureus; VRSA 12; read-out: MIC
Procedure: as §1

VRSA 10 = experiment: MIC, Gram-positive panel; settings: Staphylococcus aureus; VRSA 10; read-out: MIC
Procedure: as §1

MRSA NRS 385 = experiment: MIC, Gram-positive panel; settings: Staphylococcus aureus; MRSA NRS 385; read-out: MIC
Procedure: as §1

S. aureus NRS 107 = experiment: MIC, Gram-positive panel; settings: Staphylococcus aureus, NRS107; S. aureus NRS 107; read-out: MIC
Procedure: as §1

MRSA NRS 386 = experiment: MIC, Gram-positive panel; settings: Staphylococcus aureus; MRSA NRS 386; read-out: MIC
Procedure: as §1

[3] = system: Enterococcus faecalis ATCC 51299 (VRE); experiment: MIC, Gram-positive panel; settings: Enterococcus faecalis ATCC 51299 (VRE); read-out: MIC
Procedure: as §1

MRSA NRS 119 = experiment: MIC, Gram-positive panel; settings: Staphylococcus aureus; MRSA NRS 119; read-out: MIC
Procedure: as §1

S. aureus ATCC 6538 = experiment: MIC, Gram-positive panel; settings: Staphylococcus aureus, ATCC6538; S. aureus ATCC 6538; read-out: MIC
Procedure: as §1

[4] = system: Enterococcus faecium ATCC 700221 (VRE); experiment: MIC, Gram-positive panel; settings: Enterococcus faecium ATCC 700221 (VRE); read-out: MIC
Procedure: as §1

[5] = system: Staphylococcus aureus NRS384 (MRSA USA300); experiment: Initial MIC screening, broth microdilution (CLSI); settings: Staphylococcus aureus NRS384 (MRSA USA300), broth microdilution, visual reading
Procedure: Method: The minimum inhibitory concentration (MIC) of the compounds 1-187, and control antibiotics (vancomycin, linezolid) was determined using the broth microdilution method against methicillin-resistant Staphylococcus aureus (MRSA) USA 300 using the broth microdilution method according to the guidelines outlined by the Clinical and Laboratory Standards Institute (CLSI). MRSA strain was cultivated on Tryptic soy agar plates and let grow for 24 hours at 37° C. under aerobic conditions. Bacterial suspension equivalent to 0.5 McFarland standard was prepared and diluted in cation-adjusted Mueller-Hinton broth (CAMHB) to attain a bacterial concentration of 5×10^5 CFU/ml and seeded in 96-well plates. The desired concentrations of each drug and compound were added in the first row of the 96-well plates and serially diluted to achieve a concentration gradient from 64 μg/ml to 0.5 μg/mL.

[6] = Staphylococcus aureus, read-out: MIC

| SMILES | MIC [5, 6] [µg/mL] | further results |
| --- | --- | --- |
| CC(=O)NC[C@H]1CN(c2ccc(N3CCOCC3)c(F)c2)C(=O)O1 [linezolid, reference compound] | – | MIC [1]: 1 µg/mL (≈ 2.96 µM); MIC [2]: 2 µg/mL (≈ 5.93 µM); MIC (MRSA NRS 123): 2 µg/mL (≈ 5.93 µM); MIC (S. pneumoniae ATCC 51916): 2 µg/mL (≈ 5.93 µM); MIC (VRSA 12): 1 µg/mL (≈ 2.96 µM); MIC (VRSA 10): 1 µg/mL (≈ 2.96 µM); MIC (MRSA NRS 385): 2 µg/mL (≈ 5.93 µM); MIC (S. aureus NRS 107): 1 µg/mL (≈ 2.96 µM); MIC (MRSA NRS 386): 2 µg/mL (≈ 5.93 µM); MIC [3]: 2 µg/mL (≈ 5.93 µM); MIC (MRSA NRS 119): > 16 µg/mL; MIC (S. aureus ATCC 6538): 2 µg/mL (≈ 5.93 µM); MIC [4]: 1 µg/mL (≈ 2.96 µM) |
| Cc1ccc([C@H]2OC(=O)C(CN(C)C)[C@H]2c2ccccc2)cc1 (some centres unmarked) [Compound 18] | 128 (≈ 414 µM) | – |
| C=C1C(=O)O[C@H](c2cccc(OC)c2)[C@@H]1c1ccc(C(F)(F)F)cc1 [Compound 83] | 16 (≈ 45.9 µM) | – |
| O=C1O[C@H](c2cccc3ccccc23)[C@H](c2ccc3ccccc3c2)C1CN1CCCCC1 (some centres unmarked) [Compound 164] | > 64 | – |
| C=C1C(=O)O[C@H](c2ccc(OC)cc2)[C@@H]1c1ccccc1B1OC(C)(C)C(C)(C)O1 [Compound 87] | > 128 | – |
| C=C1C(=O)OC(C2=CC=CCC2)C1C1CCCCC1 (centres unmarked) [Compound 185] | > 64 | – |
| O=C1OC[C@H](/C=C/c2ccccc2)[C@@H]1CN1CCCCC1 [Compound 46] | > 128 | – |
| C=C1C(=O)O[C@H](c2ccc(C)cc2)[C@@H]1c1ccc(C#N)cc1 [Compound 65] | 4 (≈ 13.8 µM) | – |
| O=C1O[C@H](c2ccccc2)[C@H](c2ccccc2)C1CN1CCCCC1 (some centres unmarked) [Compound 159] | 16 (≈ 47.7 µM) | – |
| C/C=C1/C(=O)O[C@H](c2ccc(C)cc2)[C@H]1C [Compound 104] | > 128 | – |
| C=C1C(=O)O[C@H](CCCCCCCC)[C@@H]1/C=C/c1ccccc1 [Compound 51] | > 128 | – |
| C=C1C(=O)O[C@H](c2ccccc2OC)[C@@H]1c1cccc(C#N)c1 [Compound 49] | 16 (≈ 52.4 µM) | – |
| C=C1C(=O)O[C@H](c2ccc(N)cc2)[C@@H]1c1ccccc1 [Compound 22] | 32 (≈ 121 µM) | – |
| O=C1OCCC1CN1CCCCC1 (centres unmarked) [Compound 34] | > 128 | – |
| C=C1C(=O)O[C@H](c2ccc3ccccc3n2)[C@@H]1c1ccccc1 [Compound 116] | > 128 | – |
| COc1ccc([C@@H]2C(CN(C)C)C(=O)O[C@@H]2c2ccc(C)cc2)cc1 (some centres unmarked) [Compound 86] | 128 (≈ 377 µM) | – |
| C=C1C(=O)OC(C2CCCCC2)C1c1ccccc1 (centres unmarked) [Compound 181] | > 64 | – |
| C=C1C(=O)O[C@H](c2ccc(O)cc2)[C@@H]1c1cccc(C#N)c1 [Compound 43] | 128 (≈ 439 µM) | – |
| C=C1C(=O)O[C@H](c2ccnc3ccccc23)[C@@H]1c1ccc2ccccc2c1 [Compound 111] | 2 (≈ 5.69 µM) | – |
| CC1(C)CC(CN2CCCCC2)C(=O)O1 (centres unmarked) [Compound 80] | > 128 | – |
| CN(C)CC1C(=O)O[C@H](c2ccccc2)[C@H]1c1ccccc1 (some centres unmarked) [Compound 11] | 32 (≈ 108 µM) | – |
| O=C1O[C@H](c2ccccc2)CC1CN1CCCCC1 (some centres unmarked) [Compound 32] | > 128 | – |
| C=C1C(=O)O[C@H](c2ccc(O)cc2)[C@@H]1c1ccc(C#N)cc1 [Compound 4] | 256 (≈ 879 µM) | – |
| C=C1C(=O)O[C@@H]2c3c(ccc4ccccc34)C(C)C[C@H]12 (some centres unmarked) [Compound 94] | 32 (≈ 121 µM) | – |
| C=C1C(=O)O[C@H](c2cccc(F)c2)[C@@H]1CCC [Compound 84] | > 128 | – |
| COc1ccc([C@H]2OC(=O)C(CN(C)C)[C@H]2c2ccc(OC)cc2)cc1 (some centres unmarked) [Compound 82] | > 128 | – |
| C=C1C(=O)O[C@H](c2ccc(OC)cc2)[C@@H]1c1ccc(C(F)(F)F)cc1 [Compound 79] | 8 (≈ 23 µM) | – |

| SMILES | MIC [5, 6] [µg/mL] | further results |
| --- | --- | --- |
| C=CCNC[C@@H]1C(=O)O[C@H](c2ccccc2)[C@@H]1c1ccccc1 [Compound 63] | 128 (≈ 416 µM) | – |
| CCN(CC)CC1C(=O)O[C@H](c2ccccc2)[C@@H]1c1cccc2ccccc12 (some centres unmarked) [Compound 173] | 8 (≈ 21.4 µM) | – |
| C=C1C(=O)O[C@H](c2ccnc3ccccc23)[C@H]1c1ccccc1 [Compound 113] | – | MIC [5]: 16 µg/mL (≈ 53.1 µM) |
| C=C(C(=O)OC)C(c1ccccc1)C(O)c1cccc2ccccc12 (centres unmarked) [Compound 142] | 4 (≈ 12 µM) | – |
| C=C1C(=O)O[C@H](c2cccnc2)[C@@H]1C [Compound 119] | > 128 | – |
| C=C1C(=O)OC[C@@H]1c1ccccc1 [Compound 25] | > 128 | – |
| C=C1C(=O)O[C@H](c2ccc3ccccc3c2)[C@H]1c1ccccc1 [Compound 110] | 8 (≈ 26.6 µM) | – |
| CCN(CC)C[C@@H]1C(=O)O[C@H](c2ccccc2)[C@@H]1c1ccccc1 [Compound 62] | 16 (≈ 49.5 µM) | – |
| C=C(C(=O)OC)C(c1cccc2ccccc12)C(O)c1cccc2ccccc12 (centres unmarked) [Compound 145] | > 64 | – |
| C=C1C(=O)O[C@H](c2ccccc2)[C@H]1c1ccc2ccccc2c1 [Compound 115] | 2 (≈ 6.66 µM) | – |
| COc1ccc([C@@H]2[C@H](CN(C)C)C(=O)O[C@@H]2c2ccc(C#N)cc2)cc1 [Compound 9] | 128 (≈ 365 µM) | – |
| C=C(C(=O)OC)C(c1cccc2ccccc12)C(O)c1ccc2ccccc2c1 (centres unmarked) [Compound 146] | > 64 | – |
| O=C1O[C@H](c2cccc3ccccc23)[C@H](c2cccc3ccccc23)C1CN1CCCCC1 (some centres unmarked) [Compound 163] | > 64 | – |
| C=C1C(=O)O[C@H](c2ccccc2)[C@@H]1c1ccc(OC)cc1 [Compound 72] | 64 (≈ 228 µM) | – |
| C=C1C(=O)O[C@H](c2ccccc2)[C@@H]1c1ccccc1Br [Compound 53] | 4 (≈ 12.2 µM) | – |
| C=C1C(=O)O[C@H](c2ccc(Br)cc2)[C@@H]1c1ccc(C#N)cc1 [Compound 13] | 4 (≈ 11.3 µM) | – |
| C=C1C(=O)O[C@H](c2c(OC)cc(OC)cc2OC)[C@@H]1c1ccc(C(F)(F)F)cc1 [Compound 61] | > 128 | – |
| O=C1OC(c2ccccc2)C(C2CCCCC2)C1CN1CCCCC1 (centres unmarked) [Compound 186] | > 64 | – |
| Cc1ccc([C@H]2OC(=O)C(CN(C)C)[C@H]2c2ccc(C#N)cc2)cc1 (some centres unmarked) [Compound 14] | > 128 | – |
| CCN(CC)CC1C(=O)O[C@H](c2ccc3ccccc3c2)[C@H]1c1ccccc1 (some centres unmarked) [Compound 108] | – | MIC [5]: >128 µg/mL |
| C=C1C(=O)O[C@H](c2ccc(OC)cc2)[C@@H]1c1ccccc1Br [Compound 78] | 8 (≈ 22.3 µM) | – |
| CC(C)(C)[Si](C)(C)OCC[C@H]1OC(=O)[C@@H](CN2CCCCC2)[C@H]1c1cccc(Br)c1 [Compound 48] | > 128 | – |
| CN(C)CC1C(=O)O[C@H](c2ccccc2)[C@@H]1c1ccc(C#N)cc1 (some centres unmarked) [Compound 16] | > 128 | – |
| C=C1C(=O)O[C@H](c2ccc(OC)cc2)[C@H]1C [Compound 118] | > 128 | – |
| C=C1C(=O)O[C@H](c2ccc(OC)cc2)[C@@H]1c1ccc(OC)cc1 [Compound 66] | 32 (≈ 103 µM) | – |
| C=C1C(=O)O[C@H](c2ccc(OC)cc2)[C@@H]1c1ccc(C#N)cc1 [Compound 70] | 32 (≈ 105 µM) | – |
